Measurements: patent US5872097A, “Oligopeptides with affinity to opioid receptors” (Pharmacia & Upjohn Aktiebolag, priority 1992, dated 1999)
Bridge positions count the residues as written; N and C are the ends. Square brackets hold non-standard residues; d marks the D form. Ends that are not written are not given here. Peptide text beside a SMILES is read from it. Dab = NCC[C@H](N)C(=O)O

Tests used:
[1] = biological target: T1, μ-receptor (Rattus norvegicus, UniProt P33535); test: (3H)-DAMGO displacement receptor assay; assay type: binding; settings: LIGAND program; for IC50: displacement of (3H)-DAMGO specific binding, radioligand about 24 x 10^-10 M
T1 construct: from tissue; host or cells: rat brain (homogenate / synaptic plasma membranes, whole brain without cerebellum)
Protocol: (§1) In the experiments noted in FIGS. 3 and 4 and in Table 1 (^3 H)-(D-Ala^2,MePhe^4,Gly-ol^5)-enkephalin (DAGO or DAMGO) and (^3 H)-(D-Ala^2,D-Leu^5)-enkephalin (DADL) purchased from Amersham (Buckinghamshire, England) were used as radioligands in a binding assay performed as in Reg.
(§2) The peptides were employed for both receptor tests and bioassays on electrically stimulated guinea pig ileum strips (GPI-tests). The receptor assays were performed in the same manner as above with DAMGO as a radioligand to the μ-receptor. In the assays (^3 H)-DAMGO specific binding was displaced by the different tested substances (10^-5 M to 10^-10 M). […] Ups. […] The magnitude of activity in relation to a standard compound, normorphine was recorded.

[2] = biological target: T2, δ-receptor ((3H)-DADL binding site) (Rattus norvegicus, UniProt P33533); test: (3H)-DADL binding assay, rat brain homogenates; settings: duplicate determination, one site model, EBDA/LIGAND
T2 construct: from tissue; host or cells: rat brain homogenate
Excerpt: as §1
(§3) In the publication β-Casomorphins and Related Peptides Ed.

[3] = biological target: T3, μ-receptor ((3H)-DAGO binding site) (Rattus norvegicus, UniProt P33535); test: (3H)-DAGO binding assay, rat brain homogenates; settings: duplicate determination, one site model, EBDA/LIGAND
T3 construct: from tissue; host or cells: rat brain (homogenate / synaptic plasma membranes, whole brain without cerebellum)
Excerpt: as §1, §3

[4] = system: electrically stimulated guinea pig ileum strips; settings: relative to standard compound normorphine = 1
Protocol: as §2

T1 sequence (P33535 whole entry): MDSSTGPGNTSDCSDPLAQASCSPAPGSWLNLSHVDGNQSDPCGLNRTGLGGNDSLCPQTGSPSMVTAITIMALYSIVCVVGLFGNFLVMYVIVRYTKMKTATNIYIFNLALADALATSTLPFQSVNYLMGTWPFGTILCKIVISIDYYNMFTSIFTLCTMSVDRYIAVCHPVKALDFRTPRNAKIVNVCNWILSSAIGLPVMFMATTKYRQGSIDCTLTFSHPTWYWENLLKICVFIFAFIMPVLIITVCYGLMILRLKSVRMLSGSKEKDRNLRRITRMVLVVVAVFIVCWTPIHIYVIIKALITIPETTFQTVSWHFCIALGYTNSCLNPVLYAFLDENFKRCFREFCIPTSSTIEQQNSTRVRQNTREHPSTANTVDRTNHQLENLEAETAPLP
T3 sequence (P33535 whole entry): as above
T2 sequence (P33533 whole entry): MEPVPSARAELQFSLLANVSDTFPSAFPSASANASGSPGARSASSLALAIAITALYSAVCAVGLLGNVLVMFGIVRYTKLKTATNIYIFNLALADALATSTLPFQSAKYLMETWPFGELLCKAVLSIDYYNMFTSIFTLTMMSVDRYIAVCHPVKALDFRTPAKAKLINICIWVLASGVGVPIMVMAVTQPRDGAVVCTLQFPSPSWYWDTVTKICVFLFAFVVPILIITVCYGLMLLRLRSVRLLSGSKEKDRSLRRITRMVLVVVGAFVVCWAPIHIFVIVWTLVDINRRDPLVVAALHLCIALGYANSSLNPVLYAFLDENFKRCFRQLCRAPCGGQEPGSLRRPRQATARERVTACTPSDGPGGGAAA

Molecule: CC(C)C[C@@H]1NC(=O)[C@H](Cc2ccccc2)NC(=O)[C@@H](NC(=O)[C@@H](N)Cc2ccc(O)cc2)CSSC[C@@H](C(=O)O)NC1=O (H-YCFLC-OH; disulfide 2-5)
- IC50 [1]: 0.24 nM

Molecule: CC(C)C[C@@H]1NC(=O)[C@H](Cc2ccccc2)NC(=O)[C@@H](NC(=O)[C@@H](N)Cc2ccc(O)cc2)CCCCNC(=O)[C@H](CCC(=O)O)NC1=O (H-YKFLE; lactam 2-C)
- IC50 [1]: 0.055 nM

Molecule: CC(C)C[C@@H]1NC(=O)[C@H](Cc2ccccc2)NC(=O)[C@@H](NC(=O)[C@@H](N)Cc2ccc(O)cc2)CCNC(=O)[C@H](CCC(=O)O)NC1=O (H-Y[Dab]FLE; lactam 2-C (inferred); N-terminus assumed)
- Bmax (binding capacity) ([1]; (3H)-DAMGO binding): 18.6 pmol

Molecule: CC(C)C[C@H](NC(=O)[C@H](CC(C)C)NC(=O)CNC(=O)[C@@H](N)Cc1ccc(O)cc1)C(=O)O [Tyr--Gly--Leu--Leu, Tyr-Gly-Leu-Leu] (H-YGLL-OH)
- Ki [2]: 24000 nM
- Ki [3]: 32000 nM

Molecule: CC(C)C[C@H](NC(=O)[C@H](Cc1ccccc1)NC(=O)[C@@H](C)NC(=O)[C@@H](N)Cc1ccc(O)cc1)C(=O)N[C@@H](CCC(=O)O)C(=O)O [Tyr-D-Ala-Phe-Leu-Glu] (H-Y[dA]FLE-OH)
- GPI-test relative activity normorphine = 1 [4]: 0.01
- IC50 [1]: 0.048 nM

Molecule: CC(C)C[C@H](NC(=O)[C@H](Cc1ccccc1)NC(=O)[C@@H](C)NC(=O)[C@@H](N)Cc1ccc(O)cc1)C(N)=O [Tyr-D-Ala-Phe-Leu-NH2, reference compound] (H-Y[dA]FL-NH2)
- GPI-test relative activity normorphine = 1 [4]: 0.3
- IC50 [1]: 0.1 nM

Molecule: CSCC[C@H](NC(=O)[C@H](Cc1ccccc1)NC(=O)[C@@H](C)NC(=O)[C@@H](N)Cc1ccc(O)cc1)C(N)=O [Tyr-D-Ala-Phe-Met-NH2, reference compound] (H-Y[dA]FM-NH2)
- GPI-test relative activity normorphine = 1 [4]: 0.5
- IC50 [1]: 0.15 nM

Molecule: YPFLE [Tyr-Pro-Phe-Leu-Glu]
- GPI-test relative activity normorphine = 1 [4]: 0.01
- IC50 [1]: 0.024 nM

Molecule: YPFVE [Tyr--Pro--Phe--Val--Glu, Tyr-Pro-Phe-Val-Glu, reference compound]
- Ki [3]: 8900 nM

Molecule: YSFLE-NH2 [Tyr-Ser-Phe-Leu-Glu-NH2]
- IC50 [1]: 2.6 nM
